In patent US20230278972A1, “SUBSTITUTED HALOALKYL SULFONANILIDE HERBICIDES” (FMC Corporation, priority 2020, published 2023):

Experiments:
Format in all cases: in vivo
[1] = test system: galium (catchweed bedstraw, Galium aparine); experiment: Test A postemergence, galium; conditions: Postemergence, 0 to 100 scale (0 no effect, 100 complete control); for Plant response rating, Galium: 125 g ai/ha; for Galium plant response rating: 500 g ai/ha, visual injury vs untreated controls after approx. 10 days
Method in brief: (§1)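 Directed soil spray at planting gave the preemergence treatment, while foliar application to one- to two-leaf seedlings (2–10 cm) gave the postemergence one; pots held a loam and sand mixture and chemicals were carried in a non-phytotoxic solvent with surfactant.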

[2] = test system: ragweed (common ragweed, Ambrosia artemisiifolia); experiment: Test A preemergence, ragweed; conditions: Preemergence; for Plant response rating, Ragweed: 0 to 100 scale (0 no effect, 100 complete control); for Ragweed plant response rating: visual injury on 0 to 100 scale (0 no effect, 100 complete control), approximately 10 days
Method in brief: (§2)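 Pots: loam soil/sand blend. Pre: directed soil spray at planting. Post: plants 2–10 cm, 1–2 leaf stage. Formulation: non-phytotoxic solvent + surfactant.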

kochia (Bassia scoparia) [3] = experiment: Test A preemergence, kochia; conditions: Preemergence; for Plant response rating, Kochia: 0 to 100 scale (0 no effect, 100 complete control); for Kochia plant response rating: visual injury on 0 to 100 scale (0 no effect, 100 complete control), approximately 10 days
Method in brief: as §2

[4] = test system: blackgrass (Alopecurus myosuroides); experiment: Test A postemergence, blackgrass; conditions: Postemergence, 0 to 100 scale (0 no effect, 100 complete control); for Plant response rating, Blackgrass: 125 g ai/ha; for Blackgrass plant response rating: 500 g ai/ha, visual injury vs untreated controls after approx. 10 days
Method in brief: as §2

corn (Zea mays) = experiment: Test A postemergence, corn; conditions: Postemergence, 0 to 100 scale (0 no effect, 100 complete control); for Plant response rating, Corn: 125 g ai/ha; for Corn plant response rating: 500 g ai/ha, visual injury vs untreated controls after approx. 10 days
Method in brief: as §2

[5] = test system: Foxtail, Giant (giant foxtail, Setaria faberi); experiment: Test A postemergence, Foxtail, Giant; conditions: Postemergence, 0 to 100 scale (0 no effect, 100 complete control); for Plant response rating, Foxtail, Giant: 125 g ai/ha; for Foxtail, Giant plant response rating: 500 g ai/ha, visual injury vs untreated controls after approx. 10 days
Method in brief: as §2

[6] = test system: ragweed (common ragweed, Ambrosia artemisiifolia); experiment: Test A postemergence, ragweed; conditions: Postemergence, 0 to 100 scale (0 no effect, 100 complete control); for Plant response rating, Ragweed: 125 g ai/ha; for Ragweed plant response rating: 500 g ai/ha, visual injury vs untreated controls after approx. 10 days
Method in brief: as §2

[7] = test system: barnyardgrass (Echinochloa crus-galli); experiment: Test A preemergence, barnyardgrass; conditions: Preemergence; for Plant response rating, Barnyardgrass: 0 to 100 scale (0 no effect, 100 complete control); for Barnyardgrass plant response rating: visual injury on 0 to 100 scale (0 no effect, 100 complete control), approximately 10 days
Method in brief: as §2

[8] = test system: Ryegrass, Italian (Italian ryegrass, Lolium multiflorum); experiment: Test A postemergence, Ryegrass, Italian; conditions: Postemergence, 0 to 100 scale (0 no effect, 100 complete control); for Plant response rating, Ryegrass, Italian: 125 g ai/ha; for Ryegrass, Italian plant response rating: 500 g ai/ha, visual injury vs untreated controls after approx. 10 days
Method in brief: as §2

[9] = test system: pigweed (Amaranthus retroflexus); experiment: Test A preemergence, pigweed; conditions: for Plant response rating, Pigweed: 0 to 100 scale (0 no effect, 100 complete control); for Pigweed plant response rating: visual injury on 0 to 100 scale (0 no effect, 100 complete control), approximately 10 days
Method in brief: as §1

[10] = test system: pigweed (Amaranthus retroflexus); experiment: Test A postemergence, pigweed; conditions: Postemergence, 0 to 100 scale (0 no effect, 100 complete control); for Plant response rating, Pigweed: 125 g ai/ha; for Pigweed plant response rating: 500 g ai/ha, visual injury vs untreated controls after approx. 10 days
Method in brief: as §2

[11] = test system: Foxtail, Giant (giant foxtail, Setaria faberi); experiment: Test A preemergence, Foxtail, Giant; conditions: Preemergence; for Plant response rating, Foxtail, Giant: 0 to 100 scale (0 no effect, 100 complete control); for Foxtail, Giant plant response rating: visual injury on 0 to 100 scale (0 no effect, 100 complete control), approximately 10 days
Method in brief: as §2

[12] = test system: wheat (Triticum aestivum); experiment: Test A postemergence, wheat; conditions: Postemergence, 0 to 100 scale (0 no effect, 100 complete control); for Plant response rating, Wheat: 125 g ai/ha; for Wheat plant response rating: 500 g ai/ha, visual injury vs untreated controls after approx. 10 days
Method in brief: as §1

[13] = test system: barnyardgrass (Echinochloa crus-galli); experiment: Test A postemergence, barnyardgrass; conditions: Postemergence, 0 to 100 scale (0 no effect, 100 complete control); for Plant response rating, Barnyardgrass: 125 g ai/ha; for Barnyardgrass plant response rating: 500 g ai/ha, visual injury vs untreated controls after approx. 10 days
Method in brief: as §1

kochia (Bassia scoparia) [14] = experiment: Test A postemergence, kochia; conditions: Postemergence, 0 to 100 scale (0 no effect, 100 complete control); for Plant response rating, Kochia: 125 g ai/ha; for Kochia plant response rating: 500 g ai/ha, visual injury vs untreated controls after approx. 10 days
Method in brief: as §2

[15] = test system: Ryegrass, Italian (Italian ryegrass, Lolium multiflorum); experiment: Test A preemergence, Ryegrass, Italian; conditions: Preemergence; for Plant response rating, Ryegrass, Italian: 0 to 100 scale (0 no effect, 100 complete control); for Ryegrass, Italian plant response rating: visual injury on 0 to 100 scale (0 no effect, 100 complete control), approximately 10 days
Method in brief: as §2

[16] = 125 g ai/ha, visual injury, approx. 10 days

SMILES | Galium plant response rating [1] | Plant response rating, Ragweed ([2]; 500 g ai/ha) | Plant response rating, Kochia (kochia (Bassia scoparia) [3]; 500 g ai/ha) | Blackgrass plant response rating [4] | Corn plant response rating (corn (Zea mays)) | Foxtail, Giant plant response rating [5] | Ragweed plant response rating [6] | Plant response rating, Barnyardgrass ([7]; 500 g ai/ha) | Ryegrass, Italian plant response rating [8] | Plant response rating, Pigweed ([9]; 500 g ai/ha) | Pigweed plant response rating [10] | Plant response rating, Foxtail, Giant ([11]; 500 g ai/ha) | Wheat plant response rating [12] | Barnyardgrass plant response rating [13] | Kochia plant response rating (kochia (Bassia scoparia) [14]) | Plant response rating, Ryegrass, Italian ([15]; 500 g ai/ha) | Plant response rating, Galium ([1]; visual injury approx. 10 days) | Ragweed plant response rating ([2]; 125 g ai/ha) | Kochia plant response rating (kochia (Bassia scoparia) [3]; 125 g ai/ha) | Plant response rating, Blackgrass ([4]; visual injury approx. 10 days) | also measured
Cc1cc(C)c(N(S(=O)(=O)C(F)(F)F)S(=O)(=O)C(F)(F)F)cc1C1=NOC2(CCCC2)C1 [Compound 208] | 70 | 0 | 90 | 20 | 20 | 40 | 20 | 90 | 40 | 70 | 50 | 100 | 50 | 30 | 30 | 80 | – | – | – | – | Plant response rating, Galium [1]: 30; Plant response rating, Ragweed [2, 16]: 0; Plant response rating, Kochia (kochia (Bassia scoparia) [3]; [16]): 90; Plant response rating, Blackgrass [4]: 0; Plant response rating, Corn (corn (Zea mays)): 0; Plant response rating, Foxtail, Giant [5]: 0; Plant response rating, Ragweed [6]: 20; Plant response rating, Barnyardgrass [7, 16]: 90; Plant response rating, Ryegrass, Italian [8]: 0; Plant response rating, Pigweed [9, 16]: 60; Plant response rating, Pigweed [10]: 20; Plant response rating, Foxtail, Giant [11, 16]: 90; Plant response rating, Wheat [12]: 0; Plant response rating, Barnyardgrass [13]: 0; Plant response rating, Kochia (kochia (Bassia scoparia) [14]): 10; Plant response rating, Ryegrass, Italian [15, 16]: 70
CCn1cc(-c2cc(NS(=O)(=O)C(F)(F)F)c(C)cc2C)c(=O)n(CC)c1=O [Compound 44] | 90 | 10 | 60 | 90 | 70 | 90 | 50 | 100 | 30 | 100 | 90 | 100 | 70 | 90 | 30 | 100 | 80 | 0 | 0 | 80 | Plant response rating, Corn (corn (Zea mays); visual injury approx. 10 days): 0; Plant response rating, Foxtail, Giant ([5]; visual injury approx. 10 days): 90; Plant response rating, Ragweed ([6]; visual injury approx. 10 days): 20; Barnyardgrass plant response rating ([7]; 125 g ai/ha): 100; Plant response rating, Ryegrass, Italian ([8]; visual injury approx. 10 days): 30; Pigweed plant response rating ([9]; 125 g ai/ha): 40; Plant response rating, Pigweed ([10]; visual injury approx. 10 days): 80; Foxtail, Giant plant response rating ([11]; 125 g ai/ha): 100; Plant response rating, Wheat ([12]; visual injury approx. 10 days): 70; Plant response rating, Barnyardgrass ([13]; visual injury approx. 10 days): 90; Plant response rating, Kochia (kochia (Bassia scoparia) [14]; visual injury approx. 10 days): 10; Ryegrass, Italian plant response rating ([15]; 125 g ai/ha): 100
COC(=O)N(c1cc(-c2ccnn(C)c2=O)c(C)cc1C)S(=O)(=O)C(F)(F)F [Compound 53] | 80 | 40 | 0 | 0 | 0 | 0 | 20 | 0 | 0 | 0 | 0 | 0 | 0 | 0 | 0 | 0 | 50 | 0 | 0 | 0 | Plant response rating, Corn (corn (Zea mays); visual injury approx. 10 days): 0; Plant response rating, Foxtail, Giant ([5]; visual injury approx. 10 days): 0; Plant response rating, Ragweed ([6]; visual injury approx. 10 days): 20; Barnyardgrass plant response rating ([7]; 125 g ai/ha): 0; Plant response rating, Ryegrass, Italian ([8]; visual injury approx. 10 days): 0; Pigweed plant response rating ([9]; 125 g ai/ha): 0; Plant response rating, Pigweed ([10]; visual injury approx. 10 days): 0; Foxtail, Giant plant response rating ([11]; 125 g ai/ha): 0; Plant response rating, Wheat ([12]; visual injury approx. 10 days): 0; Plant response rating, Barnyardgrass ([13]; visual injury approx. 10 days): 0; Plant response rating, Kochia (kochia (Bassia scoparia) [14]; visual injury approx. 10 days): 0; Ryegrass, Italian plant response rating ([15]; 125 g ai/ha): 0
